PMC11520554, “The endocannabinoid ARA-S facilitates the activation of cardiac Kv7.1/KCNE1 channels from different species” (Channels, 2024)
pEC50: −log10 of the molar value. Like-named read-outs stand apart in the source and are kept apart here.

Key:
[1] = test system: guinea pig heart; set-up: method as in PMID 36796231; details: cited from earlier work
[2] = target: T1, human Kv7.1/KCNE1 channel (Homo sapiens, UniProt P51787); assay: Two-electrode voltage clamp of Kv7.1/KCNE1 expressed in Xenopus laevis oocytes; type: cell-based
T1 construct: expressed in transfected cells; host or cells: Xenopus laevis oocytes (RNA injection)
From the text: (§1) Isolation of Xenopus laevis oocytes was approved by the Linköping Animal Care and Use Committee (Permits #1941 and #14515) and conforms to national and international guidelines. All procedures conform to the guidelines from Directive 2010/63/EU of the European Parliament on the protection of animals used for scientific purposes. A total of 30 female adult (minimum 1 year of age) Xenopus laevis animals (from Nasco, WI, USA) underwent surgery to isolate oocytes. The frogs were anaesthetized for 15 minutes in a bath of 1.4 g/L MS-222 Sandoz (Ethyl 3-aminobenzoate methanesulfonate, Sigma Aldrich, Stockholm). The depth of anesthesia was monitored by checking for reflexes when the paws were pinched. A small incision was made on the abdomen to expose lobes of oocytes, which were collected using a surgical scissor. The small incision was closed with suture and local anesthesia (Marcain 5 mg/ml and Xylocain 2%, Distansapoteket, Stockholm) topically applied to relieve pain subsequent to surgery. At the experimental endpoint (in association with the 6th surgery), animals were sacrificed by decapitation under deep anesthesia (which was induced by the bath of 1.4 g/L MS-222 Sandoz). ARRIVE guidelines were followed. Note that experiments were performed on isolated oocytes only (no in vivo experiments were performed). Oocytes were isolated and maintained as previously described. The constructs used had the following accession numbers: human Kv7.1: NM_000218; human KCNE1: NM_000219; guinea pig Kv7.1: NM_001172821.1; guinea pig KCNE1: NM_001172972.1; rabbit Kv7.1: XM_008252197.2; rabbit KCNE1: NM_001109822. Oocytes were injected with RNA for human, guinea pig or rabbit Kv7.1 and KCNE1. The amounts injected were 12.5 ng of human Kv7.1 and 7.5 ng of human KCNE1, 1.25 ng of guinea pig Kv7.1 and 1.25 ng of guinea pig KCNE1, and 0.9 ng of rabbit Kv7.1 and 0.55 ng of rabbit KCNE1. Following injection, the oocytes were generally incubated at 16°C for 1 to 2 days.
(§2) Two-electrode voltage clamp recordings were performed at room temperature using a Dagan CA-1B amplifier (Dagan, MN, USA) or an AxoClamp 900A amplifier (Molecular Devices, CA, USA). All chemicals are from Sigma-Aldrich (Stockholm, Sweden), unless stated otherwise. N-arachidonoyl-L-serine (ARA-S) was bought from Cayman Chemicals (MI, USA) and delivered as a stock solution of 26 mM in EtOH from the supplier. The stock solution was stored at −20°C according to supplier instructions. The control solution contained (in mM): 88 NaCl, 1 KCl, 0.4 CaCl2, 0.8 MgCl2, and 15 HEPES (with pH set to 7.4 using NaOH). For ARA-S experiments, the control solution was supplemented with indicated concentrations of ARA-S. The holding voltage was set to −80 mV. Activation curves were generally generated in steps between −80 and + 60 or +80 mV in increments of 10 mV (5-s duration). The tail voltage was set to −20 or −30 mV. Control solution or ARA-S supplemented solution was continuously perfused into the oocyte chamber at a speed of 1 mL/min using a Minipuls 3 peristaltic pump (Gilson, WI, USA). ARA-S was applied until a stable effect on current amplitude was observed, achieved after approximately 10 minutes, monitored by running an application protocol stepping from a holding voltage of −80 mV to a test voltage of 0 mV every 10 seconds. In the time-matched control experiments for rabbit and guinea pig channels, experiments were performed in a similar way as with ARA-S but with EtOH only; i.e. the first control recording was performed in control solution (no vehicle) and the subsequent recordings done with vehicle only added (i.e. EtOH but no ARA-S). The tubing system and recording chamber were cleaned between cells with 70% EtOH and distilled H2O.
(§3) To quantify the voltage dependence of channel opening, tail currents were measured shortly after stepping to the tail voltage and plotted against the preceding activation voltage. […]

[3] = target: guinea pig Kv7.1/KCNE1 channel (Cavia porcellus, UniProt A6Y9U2); assay: as above; type: cell-based
From the text: as §1, §2, §3

[4] = target: rabbit Kv7.1/KCNE1 channel (Oryctolagus cuniculus, UniProt Q9MYS6); assay: as above; type: cell-based
Chain of rabbit Kv7.1/KCNE1 channel (Q9MYS6 whole entry): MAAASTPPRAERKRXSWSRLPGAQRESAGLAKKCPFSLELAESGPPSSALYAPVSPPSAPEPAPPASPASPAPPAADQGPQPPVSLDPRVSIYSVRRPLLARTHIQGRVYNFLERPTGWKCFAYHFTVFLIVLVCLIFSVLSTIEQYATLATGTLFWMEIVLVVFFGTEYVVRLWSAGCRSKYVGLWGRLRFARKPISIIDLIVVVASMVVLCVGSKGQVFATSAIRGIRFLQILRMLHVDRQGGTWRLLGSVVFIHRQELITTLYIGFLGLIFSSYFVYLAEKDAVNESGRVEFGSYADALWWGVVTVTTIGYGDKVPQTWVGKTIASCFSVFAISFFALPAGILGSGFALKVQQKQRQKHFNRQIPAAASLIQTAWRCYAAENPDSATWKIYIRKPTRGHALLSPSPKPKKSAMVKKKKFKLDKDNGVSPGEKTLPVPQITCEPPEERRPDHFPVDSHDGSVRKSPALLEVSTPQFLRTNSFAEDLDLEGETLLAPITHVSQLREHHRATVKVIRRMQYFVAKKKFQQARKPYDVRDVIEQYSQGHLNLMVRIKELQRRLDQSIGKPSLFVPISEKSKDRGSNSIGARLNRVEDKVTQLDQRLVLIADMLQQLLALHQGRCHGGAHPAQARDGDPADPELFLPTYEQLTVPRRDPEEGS
Chain of rabbit Kv7.1/KCNE1 channel (Q28705 whole entry partner): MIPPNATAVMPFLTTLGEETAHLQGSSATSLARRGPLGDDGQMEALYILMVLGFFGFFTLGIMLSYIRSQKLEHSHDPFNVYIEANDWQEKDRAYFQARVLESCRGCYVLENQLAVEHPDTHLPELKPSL
From the text: as §1, §2, §3

[5] = test system: cannabinoid receptor 1 (CB1); set-up: method as in PMID 16467152, PMID 20649563; details: cited from earlier work
[6] = target: T1, human Kv7.1/KCNE1 channel; set-up: method as in PMID 36796231; details: cited from earlier work
[7] = test system: TRPV1 channels; set-up: method as in PMID 16467152, PMID 20649563; details: at concentrations as high as 30 µM; cited from earlier work
[8] = test system: CB2; set-up: method as in PMID 16467152, PMID 20649563; details: at concentrations as high as 30 µM; cited from earlier work
[9] = test system: Kv7.1/KCNE1 from all three species; assay: Two-electrode voltage clamp, summary over channels from all three species; type: cell-based; details: predicted from fits, range over human, guinea pig and rabbit channels
From the text: Isolation of Xenopus laevis oocytes was approved by the Linköping Animal Care and Use Committee (Permits #1941 and #14515) and conforms to national and international guidelines. All procedures conform to the guidelines from Directive 2010/63/EU of the European Parliament on the protection of animals used for scientific purposes. A total of 30 female adult (minimum 1 year of age) Xenopus laevis animals (from Nasco, WI, USA) underwent surgery to isolate oocytes. The frogs were anaesthetized for 15 minutes in a bath of 1.4 g/L MS-222 Sandoz (Ethyl 3-aminobenzoate methanesulfonate, Sigma Aldrich, Stockholm). The depth of anesthesia was monitored by checking for reflexes when the paws were pinched. […]
Two-electrode voltage clamp recordings were performed at room temperature using a Dagan CA-1B amplifier (Dagan, MN, USA) or an AxoClamp 900A amplifier (Molecular Devices, CA, USA). […] ARA-S was applied until a stable effect on current amplitude was observed, achieved after approximately 10 minutes, monitored by running an application protocol stepping from a holding voltage of −80 mV to a test voltage of 0 mV every 10 seconds. […]
as §3

[10] = test system: rabbit Kv7.1/KCNE1 channels; set-up: method as in PMID 34601592; details: compared between human and rabbit channels; cited from earlier work
[11] = test system: human Kv7.1/KCNE1 channels; set-up: method as in PMID 34601592; details: compared between human and rabbit channels; cited from earlier work
[12] = test system: guinea pig-like Kv7.1/KCNE1 channel; set-up: method as in PMID 32223014; details: cited from earlier work
[13] = best fit, 0 mV, read-out: EC50 for current amplitude (Iamp) at 0 mV
[14] = best fit, 20 mV, read-out: EC50 for current amplitude (Iamp) at 20 mV
[15] = best fit, 20 mV, read-out: ΔIamp, 20 mV, max
[16] = best fit, 40 mV, read-out: EC50 for current amplitude (Iamp) at 40 mV

CCCCC/C=C\C/C=C\C/C=C\C/C=C\CCCC(=O)NC(CO)C(=O)O (stereo in doubt) [ARA-S, N-arachidonoyl-L-serine]
effect on prolonged QT interval [1]: reversed | effect on prolonged action potential duration [1]: reversed | ARA-S effect on current amplitude at 0 mV reversed upon washout ([2]; 10 µM of ARA-S, n = 5, mean ± sem): 50 ± 5% | Itailmax;ARA-S ([2]; representative cell, 10 µM ARA-S (Itailmax;ctrl = 6.2 µA)): 10.1 µA | V50;ARA-S ([2]; representative cell, 10 µM ARA-S (V50;ctrl = +30.2 mV)): −23.0 mV | pEC50 ([3]; best fit of concentration-response, n = 5-8, read-out: EC50 for the V50 effect): 5.21 | pEC50 [3, 13]: 5.33 | pEC50 [3, 14]: 5.52 | Emax [3, 15]: 733% | pEC50 [3, 16]: 5.38 | Emax ([3]; best fit, 40 mV, read-out: ΔIamp, 40 mV, max): 631% | Emax ([3]; best fit, maximal change in GMAX, channel has time-dependent GMAX run-up, read-out: ΔGMAX, max): 188% | ΔV50, max ([3]; best fit, maximal shift in V50): −70.4 mV | pEC50 ([3]; best fit, read-out: EC50 for the maximal conductance (GMAX) effect): 5.80 | Itailmax;ARA-S ([3]; representative cell, 10 µM ARA-S (Itailmax;ctrl = 4.4 µA)): 11.2 µA | V50;ARA-S ([3]; representative cell, 10 µM ARA-S (V50;ctrl = +44.1 mV)): −17.5 mV | pEC50 ([4]; best fit of concentration-response, n = 6-7, read-out: EC50 for the V50 effect): 5.51 | pEC50 [4, 13]: 5.66 | Emax ([4]; best fit, 0 mV, read-out: ΔIamp, 0 mV, max): 515% | pEC50 [4, 14]: 5.92 | Emax [4, 15]: 225% | ΔV50, max ([4]; best fit, maximal shift in V50): −60.5 mV | Itailmax;ARA-S ([4]; representative cell, 10 µM ARA-S (Itailmax;ctrl = 3.7 µA)): 5.7 µA | V50;ARA-S ([4]; representative cell, 10 µM ARA-S (V50;ctrl = +23.9 mV)): −33.5 mV | binding to cannabinoid receptor 1 (CB1) [5]: bind only weakly | pEC50 ([6]; best fit of concentration-response, human data duplicated, read-out: EC50 for the V50 effect): 5.05 | ΔIamp, 0 mV, max ([6]; best fit, 0 mV): +497% | pEC50 [6, 13]: 5.70 | ΔIamp, 20 mV, max ([6]; best fit, 20 mV): +197% | pEC50 [6, 14]: 5.85 | ΔIamp, 40 mV, max ([6]; best fit, 40 mV): +58% | pEC50 [6, 16]: 6.22 | ΔGMAX, max ([6]; best fit, maximal change in GMAX): +83% | ΔV50, max ([6]; best fit, maximal shift in V50, human data duplicated): −79.6 mV | pEC50 ([6]; best fit, human data duplicated, read-out: EC50 for the maximal conductance (GMAX) effect): 5.24 | binding to TRPV1 channels [7]: no detectable binding | binding to CB2 [8]: no detectable binding | anticipated maximal effect on V50 [9]: −60 to −80 mV | pEC50 ([9]; read-out: concentration required to reach 50% of the maximal effect on V50): 5.05 to 5.52

CC/C=C\C/C=C\C/C=C\C/C=C\C/C=C\C/C=C\CCC(=O)O [DHA, docosahexaenoic acid]
effects on channel [10]: largely comparable activating effects | effects on channel [11]: largely comparable activating effects

CCCCC/C=C\C/C=C\CCCCCCCC(=O)NCC(=O)O [Lin-Gly, linoleoyl glycine]
effects on channel compared to the human Kv7.1/KCNE1 channel [12]: impaired effects
